Experimental data reported in patent US10576064B2, “Spiro[3H-indole-3,2′-pyrrolidin]-2(1H)-one compounds and derivatives as MDM2-P53 inhibitors” (Boehringer Ingelheim International GmbH, priority 2014, dated 2020).

Each compound was assayed against p53-MDM2 interaction (GST-MDM2 protein aa 23-117 / biotinylated p53 wt peptide) (Homo sapiens (Human), UniProt Q00987) (assay: MDM2-p53 Inhibition AlphaScreen). Details: 20 nM GST-MDM2 (aa 23-117), 20 nM biotinylated p53 wt peptide.
Type: biochemical
Source text: MDM2-p53 Inhibition AlphaScreen

SMILES | IC50
O=C(O)c1ccc(CN2CC[C@H]3[C@@H](C2=O)[C@H](c2cccc(Cl)c2F)[C@]2(C(=O)Nc4cc(Cl)ccc42)N3CC2CC2)cc1 [Compound I-208] | 0.21 µM
CC(C)(C)CN1[C@H]2CCN(Cc3ccc(C(=O)O)cc3)C(=O)[C@H]2[C@H](c2cccc(Cl)c2F)[C@]12C(=O)Nc1cc(Cl)ccc12 [Compound I-210] | 0.158 µM
CCOc1cccc(CN2[C@H]3CCN(Cc4ccc(C(=O)O)cc4)C(=O)[C@H]3[C@H](c3cccc(Cl)c3F)[C@]23C(=O)Nc2cc(Cl)ccc23)c1 [Compound I-212] | 0.021 µM
COc1cccc(CN2[C@H]3CCN(Cc4ccc(C(=O)O)cc4)C(=O)[C@H]3[C@H](c3cccc(Cl)c3F)[C@]23C(=O)Nc2cc(Cl)ccc23)c1 [Compound I-214] | 0.034 µM
O=C(O)c1ccc(N2C[C@H]3[C@@H](C2=O)[C@H](c2cccc(Cl)c2F)[C@]2(C(=O)Nc4cc(Cl)ccc42)N3CC2CC2)cc1 [Compound I-216] | 0.006 µM
O=C(O)c1ccc(N2C[C@H]3[C@@H](C2=O)[C@H](c2cccc(Cl)c2F)[C@]2(C(=O)Nc4cc(Cl)ccc42)N3CC2CC2)cc1 [Compound I-217] | 0.005 µM
O=C(O)c1ccc(N2C[C@@H]3[C@H](C2=O)[C@@H](c2cccc(Cl)c2F)[C@@]2(C(=O)Nc4cc(Cl)ccc42)N3CC2CC2)cc1 [Compound I-218] | 0.46 µM
COc1cc(C(=O)O)ccc1N1C[C@H]2[C@@H](C1=O)[C@H](c1cccc(Cl)c1F)[C@]1(C(=O)Nc3cc(Cl)ccc31)N2CC1CC1 [Compound I-219] | 0.031 µM
O=C(O)c1ccc(N2C[C@H]3[C@@H](C2=O)[C@H](c2cccc(Cl)c2F)[C@]2(C(=O)Nc4cc(Cl)ccc42)N3CC2CCC2)cc1 [Compound I-221] | 0.007 µM
O=C(O)c1ccc(N2C[C@@H]3[C@H](C2=O)[C@@H](c2cccc(Cl)c2F)[C@@]2(C(=O)Nc4cc(Cl)ccc42)N3CC2CCC2)cc1 [Compound I-223] | 0.271 µM
COCCN1[C@H]2CN(c3ccc(C(=O)O)cc3)C(=O)[C@H]2[C@H](c2cccc(Cl)c2F)[C@]12C(=O)Nc1cc(Cl)ccc12 [Compound I-224] | 0.017 µM
O=C(O)c1ccc(N2C[C@H]3[C@@H](C2=O)[C@H](c2cccc(Cl)c2F)[C@]2(C(=O)Nc4cc(Cl)ccc42)N3CCC(F)(F)F)cc1 [Compound I-226] | 0.012 µM
CC(C)(C)CN1[C@H]2CN(c3ccc(C(=O)O)cc3)C(=O)[C@H]2[C@H](c2cccc(Cl)c2F)[C@]12C(=O)Nc1cc(Cl)ccc12 [Compound I-228] | 0.011 µM
CC(C)(C)CN1[C@H]2CN(c3ccc(C(=O)O)cc3)C(=O)[C@H]2[C@H](c2cccc(Cl)c2F)[C@]12C(=O)Nc1cc(Cl)ccc12 [Compound I-229] | 0.005 µM
O=C(O)c1ccc(N2C[C@H]3[C@@H](C2=O)[C@H](c2cccc(Cl)c2F)[C@]2(C(=O)Nc4cc(Cl)ccc42)N3CC2CC(F)(F)C2)cc1 [Compound I-230] | 0.005 µM
O=C(O)c1csc(N2C[C@H]3[C@@H](C2=O)[C@H](c2cccc(Cl)c2F)[C@]2(C(=O)Nc4cc(Cl)ccc42)N3CC2CC2)n1 [Compound I-233] | 0.009 µM
O=C(O)c1ccc(N2C[C@@H]3[C@H](C2=O)[C@@H](c2cccc(Cl)c2F)[C@@]2(C(=O)Nc4cc(Cl)ccc42)N3CC2CCCCC2)cc1 [Compound I-235] | 0.98 µM
O=C(O)c1ccc(N2C[C@@H]3[C@H](C2=O)[C@@H](c2cccc(Cl)c2F)[C@@]2(C(=O)Nc4cc(Cl)ccc42)N3CC2CCCC2)cc1 [Compound I-236] | 0.488 µM
CCOc1cccc(CN2[C@H]3CN(c4ccc(C(=O)O)cc4)C(=O)[C@H]3[C@H](c3cccc(Cl)c3F)[C@]23C(=O)Nc2cc(Cl)ccc23)c1 [Compound I-237] | 0.002 µM
CCOc1cccc(CN2[C@@H]3CN(c4ccc(C(=O)O)cc4)C(=O)[C@@H]3[C@@H](c3cccc(Cl)c3F)[C@@]23C(=O)Nc2cc(Cl)ccc23)c1 [Compound I-239] | 1.16 µM
CCOc1cccc(CN2[C@H]3CN(c4ccc(C(=O)O)cc4)C(=O)[C@H]3[C@H](c3cccc(Cl)c3F)[C@]23C(=O)Nc2nc(Cl)ccc23)c1 [Compound I-240] | 0.004 µM
